Like-named read-outs stand apart in the source and are kept apart here.
Assays:
[1] = Liver microsome stability assay; conditions: human, pooled human liver microsomes, pH 7.4
Procedure: This assay provides information on the metabolic stability of early drug discovery compounds based on liver microsomes. […] The reaction was initiated by adding NADPH (1 mM final concentration). Aliquots of 150 μL were collected at defined time points (0, 5, 15, 30, and 60 min) and added to cold acetonitrile (150 μL) containing an internal standard (5 μg/mL warfarin) to stop the reaction and precipitate the protein. […] Data were log transformed and represented as half-life. All experiments were conducted in duplicates.

[2] = target: T1, human serum albumin (HSA) (Homo sapiens, UniProt P02768); assay: Serum albumin binding by fluorescence quenching; conditions: HSA 2 μM, λex 280 nm, λem 337 nm
Procedure: (§1) After each addition, the mixture was incubated at rt for 5 min, and then, the emission fluorescence spectra of HAS (λ = 280 nm) were measured using a Fluorometer Max-4P (Horiba Jobin Yvon). The data obtained were further processed using the Stern–Volmer and Scatchard models in GraphPad Prism 8.0 software.

KEAP1 = KEAP1 (Homo sapiens, UniProt Q14145); assay: Differential scanning fluorimetry (DSF) assay; format: binding; conditions: 100 μM; difference from KEAP1 alone (Ti 61.3 °C)
Sequence of KEAP1 (Q14145 whole entry): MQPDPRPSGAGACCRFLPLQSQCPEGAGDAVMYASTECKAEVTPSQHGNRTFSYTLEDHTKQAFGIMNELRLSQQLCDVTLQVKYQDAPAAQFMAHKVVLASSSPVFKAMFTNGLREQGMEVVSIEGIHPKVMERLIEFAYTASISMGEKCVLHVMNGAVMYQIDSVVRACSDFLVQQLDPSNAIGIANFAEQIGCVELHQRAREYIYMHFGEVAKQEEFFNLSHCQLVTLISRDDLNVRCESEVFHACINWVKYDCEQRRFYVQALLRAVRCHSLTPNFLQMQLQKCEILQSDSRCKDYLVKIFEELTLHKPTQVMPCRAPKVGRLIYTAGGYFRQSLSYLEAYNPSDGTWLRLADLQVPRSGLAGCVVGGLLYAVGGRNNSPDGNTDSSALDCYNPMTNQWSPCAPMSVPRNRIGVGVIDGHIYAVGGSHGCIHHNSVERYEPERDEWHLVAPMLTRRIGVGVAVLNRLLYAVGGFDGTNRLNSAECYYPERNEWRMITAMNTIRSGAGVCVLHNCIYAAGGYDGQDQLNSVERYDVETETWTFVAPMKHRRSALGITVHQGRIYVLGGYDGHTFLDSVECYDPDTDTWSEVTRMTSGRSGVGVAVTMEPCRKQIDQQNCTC

ROCK-II (ROKa) = ROCK-II (ROKa) (Rattus norvegicus, UniProt Q62868); assay: ROCK inhibition studies (33P-ATP, Long S6 substrate peptide); format: biochemical
Sequence of ROCK-II (ROKa) (Q62868 2-543 limits assumed): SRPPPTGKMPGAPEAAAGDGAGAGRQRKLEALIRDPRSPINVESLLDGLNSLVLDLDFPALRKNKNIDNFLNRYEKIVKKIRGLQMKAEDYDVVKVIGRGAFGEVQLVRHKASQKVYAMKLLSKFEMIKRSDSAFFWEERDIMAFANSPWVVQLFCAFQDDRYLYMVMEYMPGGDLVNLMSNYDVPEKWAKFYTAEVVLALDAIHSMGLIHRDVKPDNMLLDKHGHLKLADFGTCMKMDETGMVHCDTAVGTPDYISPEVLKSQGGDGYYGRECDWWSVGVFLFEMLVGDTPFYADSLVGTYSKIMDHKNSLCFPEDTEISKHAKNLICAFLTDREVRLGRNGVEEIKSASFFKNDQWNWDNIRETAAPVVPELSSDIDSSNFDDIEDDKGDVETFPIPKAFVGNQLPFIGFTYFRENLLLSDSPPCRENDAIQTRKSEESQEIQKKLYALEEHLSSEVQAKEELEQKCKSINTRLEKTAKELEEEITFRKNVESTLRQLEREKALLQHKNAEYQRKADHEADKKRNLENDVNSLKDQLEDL
Procedure: ROCK-II (ROKa) (5–20 mU diluted in 50 mM Tris pH 7.5, 0.1 mM EGTA, 0.1% 2-mercaptoethanol, and 1 mg/mL BSA) was assayed against the Long S6 substrate peptide ([…]) in a final volume of 25.5 μL containing 50 mM Tris pH 7.5, 0.1 mM EGTA, 30 μM Long S6 substrate peptide, 10 mM magnesium acetate, and 0.02 mM [33P-g-ATP] (50–1000 cpm/pmol) and incubated for 30 min at room temperature. Assays were stopped by addition of 5 μL of 0.5 M (3%) orthophosphoric acid and then harvested onto P81 Unifilter plates with a wash buffer of 50 mM orthophosphoric acid.

NRF2 in SH-SY5Y cells = assay: Subcellular fractionation and immunoblot of NRF2; format: cell-based; conditions: 20 μM, 1, 2 and 4 h
Procedure: SH-SY5Y cells were seeded in p100 plates (1 × 10^6 cells/plate) and treated with 20 μM compound 1d. Cytosolic and nuclear fractions were prepared as described previously.[71] Briefly, cells were washed with cold PBS and harvested by centrifugation at 1100 rpm for 10 min. The cell pellet was resuspended in 3 pellet volumes of cold buffer A (20 mm HEPES, pH 7.0, 0.15 mm EDTA, 0.015 mm EGTA, 10 mm KCl, 1% Nonidet P-40, 1 mm phenylmethylsulfonyl fluoride, 20 mm NaF, 1 mm sodium pyrophosphate, 1 mm sodium orthovanadate, and 1 μg/mL leupeptin) and incubated in ice for 30 min. Then, the homogenate was centrifuged at 500g for 5 min. The supernatants were taken as the cytosolic fraction. The nuclear pellet was resuspended in 5 volumes of cold buffer B (10 mm HEPES, pH 8.0, 0.1 mm EDTA, 0.1 mm NaCl, 25% glycerol, 1 mm phenylmethylsulfonyl fluoride, 20 mm NaF, 1 mm sodium pyrophosphate, 1 mm sodium orthovanadate, and 1 μg/mL leupeptin). After centrifugation in the same conditions indicated above, the nuclei were resuspended in loading buffer containing 0.5% SDS. […]
Whole cell lysates were prepared in RIPA-buffer (25 mM Tris-HCl, pH 7.6, 150 mM NaCl, 1 mM EGTA, 1% Igepal, 1% sodium deoxycholate, 0.1% SDS, 1 mM PSMF, 1 mM Na3VO4, 1 mM NaF, 1 μg/mL aprotinin, 1 μg/mL leupeptin, and 1 μg/mL pepstatin). […] Immunoblots were analyzed as described previously.[48] […]

[3] = system: HMOX1/HO-1 and NQO1 in SH-SY5Y cells; assay: NRF2 signature (qRT-PCR and immunoblot) in SH-SY5Y cells; format: cell-based
Procedure: Whole cell lysates were prepared in RIPA-buffer (25 mM Tris-HCl, pH 7.6, 150 mM NaCl, 1 mM EGTA, 1% Igepal, 1% sodium deoxycholate, 0.1% SDS, 1 mM PSMF, 1 mM Na3VO4, 1 mM NaF, 1 μg/mL aprotinin, 1 μg/mL leupeptin, and 1 μg/mL pepstatin). Whole cell lysates, cytosolic and nuclear fractions containing 25 μg of whole proteins from SH-SY5Y, or lymphoblast-treated cells were loaded for SDS-PAGE electrophoresis. Immunoblots were analyzed as described previously.[48] The primary antibodies used are described in Supporting Information Table S4.
Total RNA extraction, reverse transcription, and quantitative polymerase chain reaction (PCR) were done as detailed in previous articles.[72] Primer sequences are shown in Supporting Information Table S5. Data analysis was based on the ΔΔCT method with normalization of the raw data to housekeeping genes (Applied Biosystems). All PCRs were performed in triplicates.

NRF2 = assay: 3×ARE-LUC luciferase reporter assay; format: cell-based, human
Procedure: Transient transfections of HEK293T cells were performed with the expression vectors for TK-Renilla (Promega, Madison, […]) and the expression vector ARE-LUC (Dr. J. Alam, Dept. of Molecular Genetics, Ochsner Clinic Foundation, New Orleans, LA). Cells were seeded on 24-well plates (75,000 cells per well), cultured for 16 h, and transfected using calcium phosphate. Eight hours after transfections, cells were treated with 3 different concentrations of the compounds (6, 20, and 60 μM). […] After 16 h, the cells were lysed and assayed with a dual-luciferase assay system (Promega) according to the manufacturer’s instructions. Relative light units were measured in a GloMax 96 microplate luminometer with dual injectors (Promega).

[4] = target: T1, human serum albumin (HSA); assay: biochemical
Procedure: as §1

[5] = system: TDP-43 in lymphoblasts from ALS patients; assay: TDP-43 phosphorylation and expression in lymphoblasts (immunoblot); format: cell-based, human; conditions: 20 µM, 24 hours
Procedure: Figure S1. Lack of effect of compound 1d against aberrant TDP-43 phosphorylation in sporadic ALS and […]
Representative immunoblot showing the phosphorylation status of TDP-43 in immortalized lymphocytes from control and sporadic ALS individuals. Cells were seeded at an initial density of 1 x 106 x ml-1 in the absence or presence of compound 1d (20 µM). 24 hours after compound addition, cells were harvested and processed for Western blotting analysis. The plot in the left panel (a) represents the quantification of the bands of 43 KD of pTDP-43 normalized by total-TDP-43. The densitometric analyses represent the mean ± SEM of different observations carried […]
43 expression (b) in lymphoblasts from ALS patients.
(1 picture or pasted object on this page, not shown here)

T1 sequence (P02768 25-609): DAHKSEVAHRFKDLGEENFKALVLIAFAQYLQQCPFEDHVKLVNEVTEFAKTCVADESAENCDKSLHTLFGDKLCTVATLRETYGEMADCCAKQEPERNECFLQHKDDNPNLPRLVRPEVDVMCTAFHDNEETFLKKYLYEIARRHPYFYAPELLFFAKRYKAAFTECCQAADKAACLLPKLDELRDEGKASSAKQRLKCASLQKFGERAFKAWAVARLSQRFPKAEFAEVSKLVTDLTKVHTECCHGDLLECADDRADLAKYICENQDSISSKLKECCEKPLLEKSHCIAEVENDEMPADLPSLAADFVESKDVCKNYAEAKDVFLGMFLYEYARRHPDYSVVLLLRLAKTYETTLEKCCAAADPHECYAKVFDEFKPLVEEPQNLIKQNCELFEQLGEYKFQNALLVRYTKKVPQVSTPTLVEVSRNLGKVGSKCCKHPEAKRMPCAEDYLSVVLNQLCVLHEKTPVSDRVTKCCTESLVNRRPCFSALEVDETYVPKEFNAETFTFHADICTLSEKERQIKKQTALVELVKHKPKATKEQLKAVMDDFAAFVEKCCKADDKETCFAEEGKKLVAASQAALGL

half-life at 1 h, 8 µM [1]: 35.7 min
Stern–Volmer quenching constant KSV [2]: 1.68 × 10^5 L mol^–1
ΔTi (± S.E.M.) (KEAP1): +0.2 (± 0.1) °C
remaining activity at 10 µM (ROCK-II (ROKa); 0.5 h, 10 microM, supplementary CSV, read-out: ROCK2 activity @ 10microM): 14.6 ± 4.1%
IC50 (ROCK-II (ROKa); Table 3, read-out: ROCK2 inhibition IC50): 730 nM
activation of the NRF2 reporter (NRF2; in words, 6, 20 and 60 μM): dose-dependent activation
Kd [4]: 1260 nM
Compound: O=C(CCc1ccc(O)c(O)c1)N1CCCN(S(=O)(=O)c2cccc3cnccc23)CC1 [Compound 1d, 3-(3,4-Dihydroxyphenyl)-1-(4-(isoquinolin-5-ylsulfonyl)-1,4-diazepan-1-yl)propan-1-one]
ROCK2 inhibition potency compared with fasudil (ROCK-II (ROKa); in words): potency similar to the reference compound
subcellular distribution of NRF2 (NRF2 in SH-SY5Y cells): induced a significant accumulation of NRF2 in the nucleus
mRNA levels of HMOX1 and NQO1 ([3]; 20 μM, 4, 8 and 24 h): increased the mRNA levels
protein levels of HO-1 and NQO1 ([3]; 20 μM, maximum after 24 h): increase in the protein levels
NRF2 induction, CD (concentration needed to double luciferase expression) (NRF2; HEK293T, 3×ARE-LUC): 1 µM
fold induction at 20 µM (NRF2; Homo sapiens, 16 h, 20 microM, supplementary CSV, read-out: NRF2 induction @ 20 microM (fold change)): 4.4 ± 0.27
fold induction at 6 µM (NRF2; Homo sapiens, HEK-293T, 6 µM, HEK293T, 16 h, read-out: Luciferase assay response): 2.5 ± 0.05
fold induction at 20 µM (NRF2; Homo sapiens, HEK-293T, 20 µM, HEK293T, 16 h, read-out: Luciferase assay response): 4.4 ± 0.27
fold induction at 60 µM (NRF2; Homo sapiens, HEK-293T, 60 µM, HEK293T, 16 h, read-out: Luciferase assay response): 13.6 ± 1.6
ability to reduce TDP-43 expression [5]: negative results
ability to reduce aberrant TDP-43 phosphorylation [5]: negative results

— publication PMC9132363 (Journal of Medicinal Chemistry, 2022)
